# In patent US11116735B2, “Use of substituted benzylideneguanidine derivatives as synergists for polymyxin antibiotics” (GUANGZHOU INSIGHTER BIOTECHNOLOGY CO., LTD., priority 2015, dated 2021):
# Several values for one entry are separate records, joined by “and”; a condition that tells them apart may be missing. Identical values can stand only once.
# Experiments:
# [1] = tested on: E. coli 3H-4; assay: MIC by doubling dilution, colistin sulfate-resistant E. coli 3H-4
# Experimental: (§3) In vitro minimum inhibitory concentrations of colistin sulfate against the strains where the cultures respectively comprised 20.0 ppm of the substituted benzylideneguanidine derivatives were also measured.
# [2] = tested on: P. aeruginosa E543; assay: MIC, resistance reversal by various concentrations of compound 3, P. aeruginosa E543
# Experimental: (§4) The compound 3 in this embodiment was in the form of a hydrochloride, i.e., the experiments were carried out with a hydrochloride of compound 3.
# (§5) In vitro minimum inhibitory concentrations of colistin sulfate against the strains where the cultures respectively comprised various concentrations of compound 3 were also measured.
# [3] = tested on: E. coli 2G-7; assay: MIC by doubling dilution, colistin sulfate-resistant E. coli 2G-7
# Experimental: as §3
# [4] = tested on: E. coli 2S-19; assay: MIC by doubling dilution, colistin sulfate-susceptible E. coli 2S-19; format: cell-based, Escherichia coli
# [5] = tested on: weanling piglets; assay: Compound 3 in various dosages and colistin sulfate in the feed for weanling piglets; format: in vivo, Duroc×Landrace×Large crossbred lean weanling piglets; settings: for Average daily weight gain / Diarrhea rate / Feed conversion ratio: ten days
# Experimental: (§1) 90 28-day-aged Duroc×Landrace×Large crossbred lean weanling piglets similar in weight were divided into 9 groups, 10 piglets in each group. For each group, colistin sulfate and/or various dosages of compound 3 were added into the antibiotic-free creep feed. The piglets were given ad libitum access to feed and water during the experiment. Weight gain, feed efficiency and diarrhea rate of each group within ten days were recorded.
# [6] = tested on: fast-growing yellow feather broilers; assay: Combined application of compound 3 and colistin sulfate in chicken feed; format: in vivo; settings: 28-day experiment; for Average daily weight gain / Feed conversion ratio / Survival rate: broilers
# Experimental: (§2) 800 1-day-aged fast-growing yellow feather broilers were divided into 4 groups, 4 parallels in each group and 50 broilers in each parallel. For each group, colistin sulfate and/or compound 3 were added into the feed. The chicken were kept in cages and given ad libitum access to feed and water during a 28-day experiment. Synergy of compound 3 and colistin sulfate on the chicken in the weight gain and feed efficiency was observed from the result (see Table 10).
# [7] = tested on: E. coli 5F-1; assay: MIC by doubling dilution, colistin sulfate-resistant E. coli 5F-1
# Experimental: as §3
# [8] = tested on: E. coli 5F-1; assay: MIC, resistance reversal by various concentrations of compound 3, E. coli 5F-1
# Experimental: as §4, §5
# [9] = tested on: weanling piglets; assay: Synergy of compound 3 and colistin sulfate in the feed for weanling piglets; format: in vivo, Duroc×Landrace×Large crossbred lean weanling piglets; settings: for Average daily weight gain / Diarrhea rate / Feed conversion ratio: weanling piglets, ten days
# Experimental: as §1, with “120” for “90”, “12” for “9”, “and/or” for “and/or various dosages of”
# [10] = tested on: Klebsiella sp. 4125; assay: MIC, resistance reversal by various concentrations of compound 3, Klebsiella sp. 4125
# Experimental: as §4, §5
# [11] = tested on: cherry valley ducks; assay: Combined application of compound 3 and colistin sulfate in duck feed; format: in vivo; settings: 21-day experiment
# Experimental: as §2, with “cherry valley ducks” for “fast-growing yellow feather broilers”, “groups according to Table 10,” for “groups,”, “ducks” for “broilers”, “ducks” for “chicken”, “21-day” for “28-day”, “11).” for “10).”
# [12] = tested on: E. coli 5W-7; assay: MIC by doubling dilution, colistin sulfate-susceptible E. coli 5W-7; format: cell-based, Escherichia coli
# [13] = tested on: various colistin sulfate-resistant Gram-negative bacteria; assay: MIC by doubling dilution, summary over resistant species; settings: compound 3 alone (hydrochloride)
# Experimental: as §4, §5
# [14] = tested on: Salmonella sp. 3087; assay: MIC, resistance reversal by various concentrations of compound 3, Salmonella sp. 3087
# Experimental: as §4, §5
# [15] = tested on: E. coli 4D-6; assay: MIC by doubling dilution, colistin sulfate-resistant E. coli 4D-6
# Experimental: as §3
# [16] = colistin sulfate with 0 ppm compound 3, or compound 3 (hydrochloride) in the absence of colistin sulfate
# [17] = 20 ppm colistin sulfate + 10 ppm compound 3 in creep feed (Test 1)
# [18] = 20 ppm colistin sulfate + 25 ppm compound 3 in creep feed (Test 2)
# [19] = 20 ppm colistin sulfate + 50 ppm compound 3 in creep feed (Test 3)
# [20] = 20 ppm colistin sulfate + 100 ppm compound 3 in creep feed (Test 4)
# [21] = 20 ppm colistin sulfate + 200 ppm compound 3 in creep feed (Test 5)
# [22] = 20 ppm colistin sulfate + 500 ppm compound 3 in creep feed (Test 6)
# [23] = only 200 ppm compound 3 in creep feed, no colistin sulfate
# [24] = 20 ppm colistin sulfate and 50 ppm compound 3 in feed (Test)
# [25] = 20 ppm colistin sulfate and 150 ppm compound 3 in creep feed (Test, groups 10-12)
# [26] = 150 ppm in creep feed, no colistin sulfate (Control 2, groups 7-9)
compound,measurement,setting,value
CC(C)Oc1ccc(C=NN=C(N)NN=Cc2ccc(OC(C)C)cc2)cc1 [Compound 3],In vitro minimum inhibitory concentration (MIC) of the substance alone,"[1]; E. coli 3H-4, colistin sulfate-resistant, substance alone, derivatives as hydrochlorides",>800 ppm
same,In vitro MIC of colistin sulfate in the presence of the substituted benzylideneguanidine derivative,"[1]; E. coli 3H-4, resistant, culture comprised 20.0 ppm of the derivative (hydrochloride)",0.5 ppm
same,In vitro MIC of colistin sulfate in the presence of compound 3,[2]; 5 ppm compound 3,32.00 ppm
same,In vitro MIC of colistin sulfate in the presence of compound 3,[2]; 10 ppm compound 3,8.00 ppm
same,In vitro MIC of colistin sulfate in the presence of compound 3,[2]; 20 ppm compound 3,2.00 ppm
same,In vitro MIC of colistin sulfate in the presence of compound 3,[2]; 40 ppm compound 3,0.50 ppm
same,In vitro MIC of colistin sulfate in the presence of compound 3,[2]; 80 ppm compound 3,0.50 ppm
same,In vitro MIC of the substance alone,[2]; [16],>800 ppm
same,In vitro minimum inhibitory concentration (MIC) of the substance alone,"[3]; E. coli 2G-7, colistin sulfate-resistant, substance alone, derivatives as hydrochlorides",>800 ppm
same,In vitro MIC of colistin sulfate in the presence of the substituted benzylideneguanidine derivative,"[3]; E. coli 2G-7, resistant, culture comprised 20.0 ppm of the derivative (hydrochloride)",1.0 ppm
same,In vitro minimum inhibitory concentration (MIC) of the substance alone,"[4]; E. coli 2S-19, colistin sulfate-susceptible, substance alone, derivatives as hydrochlorides",>800 ppm
same,In vitro MIC of colistin sulfate in the presence of the substituted benzylideneguanidine derivative,"[4]; E. coli 2S-19, culture comprised 20.0 ppm of the derivative (hydrochloride), colistin sulfate serially diluted",0.50 ppm
same,Average daily weight gain,[5]; [17],215 g
same,Diarrhea rate,[5]; [17],30%
same,Feed conversion ratio,[5]; [17],1.632
same,Average daily weight gain,[5]; [18],226 g
same,Diarrhea rate,[5]; [18],26%
same,Feed conversion ratio,[5]; [18],1.578
same,Average daily weight gain,[5]; [19],237 g
same,Diarrhea rate,[5]; [19],20%
same,Feed conversion ratio,[5]; [19],1.532
same,Average daily weight gain,[5]; [20],248 g
same,Diarrhea rate,[5]; [20],16%
same,Feed conversion ratio,[5]; [20],1.499
same,Average daily weight gain,[5]; [21],255 g
same,Diarrhea rate,[5]; [21],6%
same,Feed conversion ratio,[5]; [21],1.417
same,Average daily weight gain,[5]; [22],259 g
same,Diarrhea rate,[5]; [22],3%
same,Feed conversion ratio,[5]; [22],1.428
same,Dosage dependence of diarrhea rate and productivity,"[5]; colistin sulfate added together with compound 3, weanling piglets",a higher dosage of compound 3 led to a better effect
same,Average daily weight gain,[5]; [23],228 g
same,Diarrhea rate,[5]; [23],29%
same,Feed conversion ratio,[5]; [23],1.596
same,Average daily weight gain,[6]; [24],44.6 g
same,Feed conversion ratio,[6]; [24],1.855
same,Survival rate,[6]; [24],100%
same,Average daily weight gain,[6]; 100 ppm compound 3 in feed,40.2 g
same,Feed conversion ratio,[6]; 100 ppm compound 3 in feed,1.943
same,Survival rate,[6]; 100 ppm compound 3 in feed,100%
same,Synergy with colistin sulfate in weight gain and feed efficiency,[6]; chicken,Synergy
same,In vitro minimum inhibitory concentration (MIC) of the substance alone,"[7]; E. coli 5F-1, colistin sulfate-resistant, substance alone, derivatives as hydrochlorides",>800 ppm
same,In vitro MIC of colistin sulfate in the presence of the substituted benzylideneguanidine derivative,"[7]; E. coli 5F-1, resistant, culture comprised 20.0 ppm of the derivative (hydrochloride)",1.0 ppm
same,In vitro MIC of colistin sulfate in the presence of compound 3,[8]; 5 ppm compound 3,32.00 ppm
same,In vitro MIC of colistin sulfate in the presence of compound 3,[8]; 10 ppm compound 3,8.00 ppm
same,In vitro MIC of colistin sulfate in the presence of compound 3,[8]; 20 ppm compound 3,1.00 ppm
same,In vitro MIC of colistin sulfate in the presence of compound 3,[8]; 40 ppm compound 3,1.00 ppm
same,In vitro MIC of colistin sulfate in the presence of compound 3,[8]; 80 ppm compound 3,0.50 ppm
same,In vitro MIC of the substance alone,[8]; [16],>800 ppm
same,Reduction of the diarrhea rate,"[9]; groups 10, 11 and 12: colistin sulfate added together with compound 3",20%
same,Average daily weight gain,[9]; [25],254 g and 248 g and 251 g
same,Diarrhea rate,[9]; [25],12% and 9% and 10%
same,Feed conversion ratio,[9]; [25],1.435 and 1.427 and 1.453
same,Average daily weight gain,[9]; [26],200 g and 205 g and 211 g
same,Diarrhea rate,[9]; [26],36% and 38% and 34%
same,Feed conversion ratio,[9]; [26],1.666 and 1.639 and 1.647
same,In vitro MIC of colistin sulfate in the presence of compound 3,[10]; 5 ppm compound 3,32.00 ppm
same,In vitro MIC of colistin sulfate in the presence of compound 3,[10]; 10 ppm compound 3,8.00 ppm
same,In vitro MIC of colistin sulfate in the presence of compound 3,[10]; 20 ppm compound 3,2.00 ppm
same,In vitro MIC of colistin sulfate in the presence of compound 3,[10]; 40 ppm compound 3,1.00 ppm
same,In vitro MIC of colistin sulfate in the presence of compound 3,[10]; 80 ppm compound 3,1.00 ppm
same,In vitro MIC of the substance alone,[10]; [16],>800 ppm
same,Average daily weight gain,[11]; [24],55.6 g
same,Feed conversion ratio,[11]; [24],1.817
same,Survival rate,[11]; [24],100%
same,Synergy with colistin sulfate in weight gain and feed efficiency,[11],Synergy
same,Average daily weight gain,[11]; 100 ppm compound 3 in feed,50.5 g
same,Feed conversion ratio,[11]; 100 ppm compound 3 in feed,1.926
same,Survival rate,[11]; 100 ppm compound 3 in feed,100%
same,In vitro minimum inhibitory concentration (MIC) of the substance alone,"[12]; E. coli 5W-7, colistin sulfate-susceptible, substance alone, derivatives as hydrochlorides",>800 ppm
same,In vitro MIC of colistin sulfate in the presence of the substituted benzylideneguanidine derivative,"[12]; E. coli 5W-7, culture comprised 20.0 ppm of the derivative (hydrochloride), colistin sulfate serially diluted",0.25 ppm
same,Inhibitory activity on the tested strains,[13],did not exhibit inhibitory activity
same,In vitro MIC of colistin sulfate in the presence of compound 3,[14]; 5 ppm compound 3,64.00 ppm
same,In vitro MIC of colistin sulfate in the presence of compound 3,[14]; 10 ppm compound 3,16.00 ppm
same,In vitro MIC of colistin sulfate in the presence of compound 3,[14]; 20 ppm compound 3,4.00 ppm
same,In vitro MIC of colistin sulfate in the presence of compound 3,[14]; 40 ppm compound 3,2.00 ppm
same,In vitro MIC of colistin sulfate in the presence of compound 3,[14]; 80 ppm compound 3,1.00 ppm
same,In vitro MIC of the substance alone,[14]; [16],>800 ppm
same,In vitro minimum inhibitory concentration (MIC) of the substance alone,"[15]; E. coli 4D-6, colistin sulfate-resistant, substance alone, derivatives as hydrochlorides",>800 ppm
same,In vitro MIC of colistin sulfate in the presence of the substituted benzylideneguanidine derivative,"[15]; E. coli 4D-6, resistant, culture comprised 20.0 ppm of the derivative (hydrochloride)",2.0 ppm
